Results reported in patent publication US20250223303A1, “TRICYCLIC BORONIC ACID DERIVATIVE, AND PREPARATION METHOD THEREFOR AND APPLICATION THEREOF” (priority 2021, published 2025).

Experiments:
[1] = tested on: Escherichia coli ARLG 2829; experiment: MIC test of compounds in combination with antibiotics, Escherichia coli ARLG 2829; conditions: for MIC of biapenem in combination with compound, Escherichia coli ARLG-2829 NDM-5, OXA-1: Biapenem + compound (8 μg/mL); for MIC of meropenem in combination with compound, Escherichia coli ARLG-2829 NDM-5, OXA-1: Meropenem + compound (8 μg/mL)
Protocol: (§1) Strain preparation: the strains to be tested were streaked from glycerol tube at −80° C. onto Mueller Hinton II Agar plates. The plates were then placed in a 37° C. incubator and cultured for 18-24 hours.
(§2) Media preparation: CAMHB (Mueller Hinton II Broth): 22 g of powder was dissolved in 1 L of purified water and sterilized at 121° C. for 10 min for use. Saline: 8.5 g NaCl was dissolved in 1 L of pure water and sterilized at 121° C. for 30 min for use.
(§3) Preparation of compound and antibiotic stock solutions: the compound and antibiotic were dissolved in DMSO or water to 12.8 mg/mL.
(§4) 2-Fold gradient dilution of antibiotics: 300 μL of CAMHVIB medium was added to columns 2-12 of a 96-deep well plate. In column 1, 24 μL of antibiotic stock solution and 576 µL of CAMHB medium were added and mixed well, with a concentration of 512 μg/mL. 300 µL of antibiotic solution was transferred from the column 1 to the second column and mixed well. The process was repeated until column 11, and the column 12 was a blank control.
(§5) Dilution of combined compounds: the compound was diluted 400-fold to 32 μg/ml with CAMHB medium.
(§6) Working solution aliquoting: 25 μL of antibiotics was aliquoted into the 96-U bottom plate with a pipette, and 25 μL of combined compound was added to each well. If antibiotics were used alone, 25 μL of CAMHB medium was added.
(§7) Inoculum solution preparation: 5-6 single colonies were selected from the plate and suspended in normal saline. The bacterial suspension was adjusted to 0.2 (i.e., 0.5 McFarland turbidity, with a bacterial concentration was about 1 to 2×10^8 CFU/mL) with a turbidity meter. The bacterial suspension was diluted 100-fold with CAMHB medium for later use.
(§8) Inoculation: 50 μL of inoculum solution was transferred to the above 50 μL compound plate with a pipette.
(§9) Culture: The 96-U bottom plate was placed in an incubator at 37° C. for 18 to 20 h.
(§10) After the incubation, bacterial growth was visually observed, and the test plate was photographed and recorded.

[2] = tested on: Klebsiella pneumoniae ARLG 1196; experiment: MIC test of compounds in combination with antibiotics, Klebsiella pneumoniae ARLG 1196; conditions: for MIC of biapenem in combination with compound, Klebsiella pneumoniae ARLG-1196 CTM-1 group, SHV, NDM, TEM: Biapenem + compound (8 μg/mL); for MIC of meropenem in combination with compound, Klebsiella pneumoniae ARLG-1196 CTM-1 group, SHV, NDM, TEM: Meropenem + compound (8 μg/mL)
Protocol: as §1, §2, §3, §4, §5, §6, §7, §8, §9, §10

[3] = tested on: Klebsiella pneumoniae ATCC BAA-2470; experiment: MIC test of compounds in combination with antibiotics, Klebsiella pneumoniae ATCC BAA-2470; conditions: for MIC of biapenem in combination with compound, Klebsiella pneumoniae ATCC BAA-2470 NDM-1: Biapenem + compound (8 μg/mL); for MIC of meropenem in combination with compound, Klebsiella pneumoniae ATCC BAA-2470 NDM-1: Meropenem + compound (8 μg/mL)
Protocol: as §1, §2, §3, §4, §5, §6, §7, §8, §9, §10

[4] = tested on: Klebsiella pneumoniae ATCC BAA-1705; experiment: MIC test of compounds in combination with antibiotics, Klebsiella pneumoniae ATCC BAA-1705; conditions: for MIC of biapenem in combination with compound, Klebsiella pneumoniae ATCC BAA-1705 KPC-2: Biapenem + compound (8 μg/mL); for MIC of meropenem in combination with compound, Klebsiella pneumoniae ATCC BAA-1705 KPC-2: Meropenem + compound (8 μg/mL)
[5] = tested on: Acinetobacter baumannii WX-AB005; experiment: MIC test of compounds in combination with antibiotics, Acinetobacter baumannii WX-AB005; conditions: for MIC of biapenem in combination with compound, Acinetobacter baumannii WX-AB005: Biapenem + compound (8 μg/mL); for MIC of meropenem in combination with compound, Acinetobacter baumannii WX-AB005: Meropenem + compound (8 μg/mL)
Protocol: as §4, §5, §6, §7, §8, §9

[6] = tested on: Acinetobacter baumannii WX-AB013; experiment: MIC test of compounds in combination with antibiotics, Acinetobacter baumannii WX-AB013; conditions: for MIC of biapenem in combination with compound, Acinetobacter baumannii WX-AB013: Biapenem + compound (8 μg/mL); for MIC of meropenem in combination with compound, Acinetobacter baumannii WX-AB013: Meropenem + compound (8 μg/mL)
Protocol: as §4, §5, §6, §7, §8, §9

[7] = tested on: Acinetobacter baumannii ARLG-1791 OXA-23; experiment: MIC test of compounds in combination with antibiotics, Acinetobacter baumannii ARLG-1791; conditions: for MIC of biapenem in combination with compound, Acinetobacter baumannii ARLG-1791 OXA-23: Biapenem + compound (8 μg/mL); for MIC of meropenem in combination with compound, Acinetobacter baumannii ARLG-1791 OXA-23: Meropenem + compound (8 μg/mL)
Protocol: as §4, §5, §6, §7, §8, §9

[8] = tested on: Acinetobacter baumannii ARLG-1809 OXA-23; experiment: MIC test of compounds in combination with antibiotics, Acinetobacter baumannii ARLG-1809; conditions: for MIC of biapenem in combination with compound, Acinetobacter baumannii ARLG-1809 OXA-23: Biapenem + compound (8 μg/mL); for MIC of meropenem in combination with compound, Acinetobacter baumannii ARLG-1809 OXA-23: Meropenem + compound (8 μg/mL)
Protocol: as §4, §5, §6, §7, §8, §9

[9] = tested on: Acinetobacter baumannii ARLG-1852 OXA-23; experiment: MIC test of compounds in combination with antibiotics, Acinetobacter baumannii ARLG-1852; conditions: for MIC of biapenem in combination with compound, Acinetobacter baumannii ARLG-1852 OXA-23: Biapenem + compound (8 μg/mL); for MIC of meropenem in combination with compound, Acinetobacter baumannii ARLG-1852 OXA-23: Meropenem + compound (8 μg/mL)
Protocol: as §4, §5, §6, §7, §8, §9

[10] = tested on: Acinetobacter baumannii ARLG-1853 OXA-23; experiment: MIC test of compounds in combination with antibiotics, Acinetobacter baumannii ARLG-1853; conditions: for MIC of biapenem in combination with compound, Acinetobacter baumannii ARLG-1853 OXA-23: Biapenem + compound (8 μg/mL); for MIC of meropenem in combination with compound, Acinetobacter baumannii ARLG-1853 OXA-23: Meropenem + compound (8 μg/mL)
Protocol: as §4, §5, §6, §7, §8, §9

Structure (SMILES) | MIC of biapenem in combination with compound, Escherichia coli ARLG-2829 NDM-5, OXA-1 [1] [µg/mL] | MIC of meropenem in combination with compound, Escherichia coli ARLG-2829 NDM-5, OXA-1 [1] [µg/mL] | MIC of biapenem in combination with compound, Klebsiella pneumoniae ARLG-1196 CTM-1 group, SHV, NDM, TEM [2] [µg/mL] | MIC of meropenem in combination with compound, Klebsiella pneumoniae ARLG-1196 CTM-1 group, SHV, NDM, TEM [2] [µg/mL] | MIC of biapenem in combination with compound, Klebsiella pneumoniae ATCC BAA-2470 NDM-1 [3] [µg/mL] | MIC of meropenem in combination with compound, Klebsiella pneumoniae ATCC BAA-2470 NDM-1 [3] [µg/mL] | MIC of biapenem in combination with compound, Klebsiella pneumoniae ATCC BAA-1705 KPC-2 [4] [µg/mL] | MIC of meropenem in combination with compound, Klebsiella pneumoniae ATCC BAA-1705 KPC-2 [4] [µg/mL] | MIC of biapenem in combination with compound, Acinetobacter baumannii WX-AB005 [5] [µg/mL] | MIC of meropenem in combination with compound, Acinetobacter baumannii WX-AB005 [5] [µg/mL] | MIC of biapenem in combination with compound, Acinetobacter baumannii WX-AB013 [6] [µg/mL] | MIC of meropenem in combination with compound, Acinetobacter baumannii WX-AB013 [6] [µg/mL] | MIC of biapenem in combination with compound, Acinetobacter baumannii ARLG-1791 OXA-23 [7] [µg/mL] | MIC of meropenem in combination with compound, Acinetobacter baumannii ARLG-1791 OXA-23 [7] [µg/mL] | MIC of biapenem in combination with compound, Acinetobacter baumannii ARLG-1809 OXA-23 [8] [µg/mL] | MIC of meropenem in combination with compound, Acinetobacter baumannii ARLG-1809 OXA-23 [8] [µg/mL] | MIC of biapenem in combination with compound, Acinetobacter baumannii ARLG-1852 OXA-23 [9] [µg/mL] | MIC of meropenem in combination with compound, Acinetobacter baumannii ARLG-1852 OXA-23 [9] [µg/mL] | MIC of biapenem in combination with compound, Acinetobacter baumannii ARLG-1853 OXA-23 [10] [µg/mL] | MIC of meropenem in combination with compound, Acinetobacter baumannii ARLG-1853 OXA-23 [10] [µg/mL]
NC1COCC1Sc1ccc2c(c1C(=O)O)OB(O)C1CC21 (single isomer, unassigned) [Compound 10_P1] | ≤0.125 | 1 | 0.25 | 2 | ≤0.125 | ≤0.125 | ≤0.125 | ≤0.125 | 2 | 4 | 0.5 | 2 | 0.5 | 4 | 1 | 2 | 0.25 | 1 | 0.5 | 2
NC1COCC1Sc1ccc2c(c1C(=O)O)OB(O)C1CC21 (single isomer, unassigned) [Compound 10_P2] | ≤0.125 | 0.25 | 0.25 | 1 | 0.5 | 0.25 | ≤0.125 | ≤0.125 | 1 | 4 | 0.5 | 1 | 0.25 | 4 | 0.25 | 2 | ≤0.125 | 1 | ≤0.125 | 1
NC1COCC1Sc1ccc2c(c1C(=O)O)OB(O)C1CC21 (single isomer, unassigned) [Compound 11_P1] | 0.25 | ≤0.125 | 0.25 | 0.5 | 0.25 | ≤0.125 | ≤0.125 | ≤0.125 | 1 | 4 | 0.5 | 2 | 0.25 | 2 | 0.5 | 2 | 0.25 | 1 | ≤0.125 | 2
NC1COCC1Sc1ccc2c(c1C(=O)O)OB(O)C1CC21 (single isomer, unassigned) [Compound 11_P2] | ≤0.125 | ≤0.125 | 0.25 | 2 | 0.25 | 0.5 | 0.25 | ≤0.125 | 1 | 4 | 0.5 | 2 | 0.25 | 2 | 0.25 | 2 | ≤0.125 | 1 | ≤0.125 | 1
